Results from ChEMBL document CHEMBL1201862, “PubChem BioAssay data set” (2004).
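The compound was tested at five concentrations on cells cultured in 96-well plates, with a 48-hour exposure period. Abbreviation: GI50, concentration required for 50% inhibition of growth.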 Activity calls are given as the source filed them. Cut-off read from the data, not from the text of the source: active = GI50 up to about 1.1 µM and inactive = higher.

Legend:
Experiment in all cases: NCI-60 cell line screen, 48 h
HOP-92 = system: HOP-92
UO-31 = system: UO-31
RXF 393 = system: RXF 393
EKVX = system: EKVX
A498 = system: A498
OVCAR-5 = system: OVCAR-5
CCRF-CEM = system: CCRF-CEM
K562 = system: K562
ACHN = system: ACHN
HCC 2998 = system: HCC 2998
RPMI-8226 = system: RPMI-8226
MOLT-4 = system: MOLT-4
SNB-19 = system: SNB-19
OVCAR-8 = system: OVCAR-8
MDA-MB-435 = system: MDA-MB-435
T47D = system: T47D
PC-3 = system: PC-3
NCI/ADR-RES = system: NCI/ADR-RES
MDA-N = system: MDA-N

| Structure (SMILES) | GI50 (HOP-92) | GI50 (UO-31) | GI50 (RXF 393) | GI50 (EKVX) | GI50 (A498) | GI50 (OVCAR-5) | GI50 (CCRF-CEM) | GI50 (K562) | GI50 (ACHN) | GI50 (HCC 2998) | GI50 (RPMI-8226) | GI50 (MOLT-4) | GI50 (SNB-19) | GI50 (OVCAR-8) | GI50 (MDA-MB-435) | GI50 (T47D) | GI50 (PC-3) | GI50 (NCI/ADR-RES) | GI50 (MDA-N) |
| --- | --- | --- | --- | --- | --- | --- | --- | --- | --- | --- | --- | --- | --- | --- | --- | --- | --- | --- | --- |
| O=[N+]([O-])c1cc(C2SCc3nc4ccccc4n32)ccc1Cl (stereo not drawn) | 25.1 µM (inactive) | 18.5 µM (inactive) | 25.3 µM (inactive) | 31.4 µM (inactive) | 18.1 µM (inactive) | 14.3 µM (inactive) | 24.9 µM (inactive) | 17.1 µM (inactive) | 27.5 µM (inactive) | 18.4 µM (inactive) | 20.3 µM (inactive) | 31.3 µM (inactive) | 45.9 µM (inactive) | 30.3 µM (inactive) |  |  |  |  |  |
| CC(C(O)c1ccccc1)[N+](=O)[O-] (stereo not drawn) |  | 7.69 µM (inactive) | 10.9 µM (inactive) | 30 µM (inactive) | 17.5 µM (inactive) | 24.1 µM (inactive) | 10 µM (inactive) | 6.44 µM (inactive) | 16.3 µM (inactive) | 10.9 µM (inactive) | 2.9 µM (inactive) | 1.65 µM (inactive) | 24.5 µM (inactive) | 16.4 µM (inactive) | 18.5 µM (inactive) | 15.5 µM (inactive) | 22.6 µM (inactive) | 28.1 µM (inactive) |  |
| COc1cc2c(cc1OCCCN1CCN(C)CC1)N=C[C@@H]1CCCN1C2=O | 0.75 µM (active) | 2.14 µM (inactive) | 1.87 µM (inactive) | 2.03 µM (inactive) | 2.34 µM (inactive) | 2.27 µM (inactive) | 0.485 µM (active) | 0.679 µM (active) | 2.17 µM (inactive) |  | 1.04 µM (active) | 0.32 µM (active) | 4.06 µM (inactive) | 2.58 µM (inactive) | 1.9 µM (inactive) |  | 2.67 µM (inactive) | 3.5 µM (inactive) |  |
| CCC1CC2C(=O)N(c3ccccc3)C(=O)C2c2[nH]c3ccccc3c21 (stereo not drawn) |  | 31.6 µM (inactive) | 21.5 µM (inactive) | 23.2 µM (inactive) | 25.4 µM (inactive) | > 100 µM (inactive) | 26.9 µM (inactive) | 25.4 µM (inactive) | 20.2 µM (inactive) | 29.3 µM (inactive) | 22.5 µM (inactive) | 20.2 µM (inactive) | 22.9 µM (inactive) | 12.2 µM (inactive) |  |  |  |  |  |
| COc1ccc(N2C(=O)c3c(c4[nH]c5ccc(OC)cc5c4c4ccc(C(C)(C)C)cc34)C2=O)cc1 | > 100 µM (inactive) | > 100 µM (inactive) |  | > 100 µM (inactive) |  | > 100 µM (inactive) | > 100 µM (inactive) | > 100 µM (inactive) | > 100 µM (inactive) | > 100 µM (inactive) | > 100 µM (inactive) | > 100 µM (inactive) | > 100 µM (inactive) | 92.7 µM (inactive) |  |  |  |  |  |
| COc1cccc(NC(=O)C(C#N)=C(SC)SC)c1 | 46 µM (inactive) |  | > 100 µM (inactive) | > 100 µM (inactive) | > 100 µM (inactive) | > 100 µM (inactive) | 34 µM (inactive) | > 100 µM (inactive) | > 100 µM (inactive) | > 100 µM (inactive) |  | 62.2 µM (inactive) | 57 µM (inactive) | > 100 µM (inactive) | > 100 µM (inactive) |  | > 100 µM (inactive) | > 100 µM (inactive) | > 100 µM (inactive) |
| Cc1ccc(C(=O)CCC2C(=O)CC(C)(C)CC2=O)cc1 | 44.9 µM (inactive) | > 100 µM (inactive) | > 100 µM (inactive) | > 100 µM (inactive) |  | > 100 µM (inactive) | 24.5 µM (inactive) |  | > 100 µM (inactive) | > 100 µM (inactive) |  | > 100 µM (inactive) | > 100 µM (inactive) | > 100 µM (inactive) | > 100 µM (inactive) |  | > 100 µM (inactive) | > 100 µM (inactive) | > 100 µM (inactive) |
| Cc1ccc(-n2cnc3c(N/N=C4\SCC(=O)N4c4ccccc4)ncnc32)cc1 | 2.66 µM (inactive) | 1.15 µM (inactive) | 2.33 µM (inactive) | 14.8 µM (inactive) | 14.2 µM (inactive) | 12.2 µM (inactive) | 0.437 µM (active) | 1.29 µM (inactive) | 5.78 µM (inactive) |  | 0.597 µM (active) | 1.82 µM (inactive) | 11.7 µM (inactive) | 3.27 µM (inactive) | 2.02 µM (inactive) | 3.97 µM (inactive) | 3.3 µM (inactive) | 8.36 µM (inactive) |  |
| O=P(O)(O)CN1CCNCCN(CP(=O)(O)O)CCNCC1 | 3.78 µM (inactive) | > 100 µM (inactive) | > 100 µM (inactive) | > 95.9 µM (inactive) | 8.36 µM (inactive) | 10 µM (inactive) | 3.52 µM (inactive) | 3.44 µM (inactive) | > 100 µM (inactive) | 7.64 µM (inactive) | 5.97 µM (inactive) | 4.66 µM (inactive) | > 100 µM (inactive) | 6.68 µM (inactive) | 12 µM (inactive) |  | 24.9 µM (inactive) | 35.2 µM (inactive) | 13.5 µM (inactive) |
